Consider 13 molecules from US7425557B2, “Inhibitors of glycogen synthase kinase 3” (Novartis Vaccines and Diagnostics, Inc., priority 1998, dated 2008).

SMILES strings stand for the structures.

The assay deals with human GSK3β (Homo sapiens, UniProt P49841). Put plainly: Screening for GSK3 inhibitory activity using a cell-free assay. It is filed as biochemical. The settings on record: read-out: IC50 with respect to GSK3. A digest of the protocol: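 Compounds in DMSO were tested against human GSK3β over a three-hour kinase reaction. Radiolabeled phosphate transferred to the peptide was captured on streptavidin plates after EDTA/ATP stop and quantified by scintillation counting. Signal was plotted versus compound concentration.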
Chain of human GSK3β (P49841 whole entry): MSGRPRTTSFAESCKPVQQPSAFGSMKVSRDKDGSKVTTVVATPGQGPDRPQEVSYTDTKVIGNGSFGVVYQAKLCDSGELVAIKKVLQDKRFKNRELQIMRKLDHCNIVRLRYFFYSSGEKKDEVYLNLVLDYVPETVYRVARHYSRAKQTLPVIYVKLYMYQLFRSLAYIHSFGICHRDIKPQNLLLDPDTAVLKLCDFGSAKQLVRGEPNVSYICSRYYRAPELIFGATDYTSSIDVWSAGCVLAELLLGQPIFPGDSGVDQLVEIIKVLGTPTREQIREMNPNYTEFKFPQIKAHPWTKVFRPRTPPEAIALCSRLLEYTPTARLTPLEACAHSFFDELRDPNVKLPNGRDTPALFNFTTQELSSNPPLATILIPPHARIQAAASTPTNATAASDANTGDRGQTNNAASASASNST

The IC50 is the concentration needed to halve the response being measured. For `Cn1ccnc1-c1cnc(NCCNc2ccc([N+](=O)[O-])c(N)n2)nc1-c1ccc(Cl)cc1Cl` [{2-[(6-amino-5-nitro(2-pyridyl))amino]ethyl}[4-(2,4-dichlorophenyl)-5-(1-methylimidazol-2-yl)pyrimidin-2-yl]amine], the IC50 is not above 1000 nM.
In the case of `CN1CCN(c2cnc(NCCNc3ccc([N+](=O)[O-])c(N)n3)nc2-c2ccc(Cl)cc2Cl)CC1` [{2-[(6-amino-5-nitro(2-pyridyl))amino]ethyl}[4-(2,4-dichlorophenyl)-5-(4-methylpiperazinyl)-pyrimidin-2-yl]amine] it was not above 1000 nM; in that of `Nc1nc(NCCNc2ncc(-n3cnc(-c4ccccc4)c3)c(-c3ccc(Cl)cc3Cl)n2)ccc1[N+](=O)[O-]` [{2-[(6-amino-5-nitro(2-pyridyl))amino]ethyl}[4-(2,4-dichlorophenyl)-5-(4-phenylimidazolyl)pyrimidin-2-yl]amine], not above 1000 nM.
With `Nc1nc(NCCNc2ncc(-c3ccncc3)c(-c3ccc(Cl)cc3Cl)n2)ccc1[N+](=O)[O-]` [{2-[(6-amino-5-nitro(2-pyridyl))amino]ethyl}[4-(2,4-dichlorophenyl)-5-(4-pyridyl)pyrimidin-2-yl]amine] the figure was not above 1000 nM; with `Nc1nc(NCCNc2ncc(CN3CCOCC3)c(-c3ccc(Cl)cc3Cl)n2)ccc1[N+](=O)[O-]` [{2-[(6-amino-5-nitro(2-pyridyl))amino]ethyl}[4-(2,4-dichlorophenyl)-5-(morpholin-4-ylmethyl)pyrimidin-2-yl]amine], not above 1000 nM; with `Nc1nc(NCCNc2ncc(N3CCOCC3)c(-c3ccc(Cl)cc3Cl)n2)ccc1[N+](=O)[O-]` [{2-[(6-amino-5-nitro(2-pyridyl))amino]ethyl}[4-(2,4-dichlorophenyl)-5-morpholin-4-yl-pyrimidin-2-yl]amine], not above 1000 nM.
With `Cc1c[nH]c(-c2cnc(NCCNc3ccc([N+](=O)[O-])c(N)n3)nc2-c2ccc(F)cc2Cl)n1` [{2-[(6-amino-5-nitro(2-pyridyl))amino]ethyl}[4-(2-chloro-4-fluorophenyl)-5-(4-methylimidazol-2-yl)pyrimidin-2-yl]amine] the figure was not above 1000 nM; with `Nc1nc(NCCNc2ncc(-c3ncc[nH]3)c(-c3ccc(F)cc3Cl)n2)ccc1[N+](=O)[O-]` [{2-[(6-amino-5-nitro(2-pyridyl))amino]ethyl}[4-(2-chloro-4-fluorophenyl)-5-imidazol-2-ylpyrimidin-2-yl]amine], not above 1000 nM.
Turning to `Nc1nc(NCCNc2ncc(-c3ncc[nH]3)c(-c3ccccc3Cl)n2)ccc1[N+](=O)[O-]` [{2-[(6-amino-5-nitro(2-pyridyl))amino]ethyl}[4-(2-chlorophenyl)-5-imidazol-2-ylpyrimidin-2-yl]amine], the IC50 is not above 1000 nM.
With `Cc1c[nH]c(-c2cnc(NCCNc3ccc([N+](=O)[O-])c(N)n3)nc2-c2ccc(Br)cc2Cl)n1` [{2-[(6-amino-5-nitro(2-pyridyl))amino]ethyl}[4-(4-bromo-2-chlorophenyl)-5-(4-methylimidazol-2-yl)pyrimidin-2-yl]amine] the figure was not above 1000 nM; with `Nc1nc(NCCNc2ncc(-c3ncc[nH]3)c(-c3ccc(Br)cc3Cl)n2)ccc1[N+](=O)[O-]` [{2-[(6-amino-5-nitro(2-pyridyl))amino]ethyl}[4-(4-bromo-2-chlorophenyl)-5-imidazol-2-ylpyrimidin-2-yl]amine], not above 1000 nM.
In the case of `Cc1cc(Cl)ccc1-c1nc(NCCNc2ccc([N+](=O)[O-])c(N)n2)ncc1-c1ncc[nH]1` [{2-[(6-amino-5-nitro(2-pyridyl))amino]ethyl}[4-(4-chloro-2-methylphenyl)-5-imidazol-2-ylpyrimidin-2-yl]amine], the IC50 is not above 1000 nM.
With `CCc1ccc(-c2nc(NCCNc3ccc([N+](=O)[O-])c(N)n3)ncc2-n2ccnc2)cc1` [{2-[(6-amino-5-nitro(2-pyridyl))amino]ethyl}[4-(4-ethylphenyl)-5-imidazolylpyrimidin-2-yl]amine] the figure was not above 1000 nM.
